Assay results reported in ChEMBL document CHEMBL1201862, “PubChem BioAssay data set” (2004).
The source made the active and inactive calls.

Legend:
[1] = biological target: Protein disulfide-isomerase (Homo sapiens, UniProt P07237); experiment: inhibition of PDI-driven insulin aggregation – biochemical, turbidity, absorbance, cherry-picked samples, dose response (AID 602350); type: functional
[2] = biological target: T1, Rac GTPase-activating protein 1 (Homo sapiens, UniProt Q9H0H5); experiment: blockers of MgcRacGAP-driven Rac1 GTP hydrolysis – biochemical, ADP Hunter fluorescence, primary and confirmatory, confirmation (AID 624330); type: functional
T1 sequence (Q9H0H5 whole entry): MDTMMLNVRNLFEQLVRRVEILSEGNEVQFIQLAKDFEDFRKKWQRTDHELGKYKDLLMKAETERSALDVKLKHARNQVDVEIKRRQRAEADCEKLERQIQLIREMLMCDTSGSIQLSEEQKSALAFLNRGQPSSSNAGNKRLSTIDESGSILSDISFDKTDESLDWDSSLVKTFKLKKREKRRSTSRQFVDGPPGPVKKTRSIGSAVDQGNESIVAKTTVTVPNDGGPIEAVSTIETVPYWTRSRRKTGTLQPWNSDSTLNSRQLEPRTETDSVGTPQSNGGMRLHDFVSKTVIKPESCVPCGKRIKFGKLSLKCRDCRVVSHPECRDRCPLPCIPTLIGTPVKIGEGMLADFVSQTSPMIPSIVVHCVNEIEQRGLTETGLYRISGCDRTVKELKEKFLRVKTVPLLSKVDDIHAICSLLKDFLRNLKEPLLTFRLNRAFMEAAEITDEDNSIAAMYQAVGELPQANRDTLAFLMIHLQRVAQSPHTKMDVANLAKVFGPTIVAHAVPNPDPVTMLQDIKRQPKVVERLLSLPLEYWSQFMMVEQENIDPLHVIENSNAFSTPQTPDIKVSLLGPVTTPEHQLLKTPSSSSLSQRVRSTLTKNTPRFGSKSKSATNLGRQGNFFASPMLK

[3] = biological target: T2, Small ubiquitin-related modifier 2 (Homo sapiens, UniProt P61956); experiment: disruption of SUMO2 interaction with SIM peptide – biochemical, fluorescence polarization, uHTS hits, selectivity assay for SUMO1 interaction inhibitor project, dose response (AID 624385); type: functional; details: read-out: IC50_Mean
T2 sequence (P61956 whole entry): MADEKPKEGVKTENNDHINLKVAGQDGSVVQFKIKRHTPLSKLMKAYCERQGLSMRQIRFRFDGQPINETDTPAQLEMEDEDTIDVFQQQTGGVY

[4] = biological target: Beta-galactosidase (Escherichia coli, UniProt Q8VNN2); experiment: detection-enzyme interference by beta-gal modulators – biochemical, E. coli enzyme, set 3, artefact control for CCR6 antagonist project, dose response (AID 504712); type: functional
Chain of Beta-galactosidase (Q8VNN2 whole entry, the tested form may be a part): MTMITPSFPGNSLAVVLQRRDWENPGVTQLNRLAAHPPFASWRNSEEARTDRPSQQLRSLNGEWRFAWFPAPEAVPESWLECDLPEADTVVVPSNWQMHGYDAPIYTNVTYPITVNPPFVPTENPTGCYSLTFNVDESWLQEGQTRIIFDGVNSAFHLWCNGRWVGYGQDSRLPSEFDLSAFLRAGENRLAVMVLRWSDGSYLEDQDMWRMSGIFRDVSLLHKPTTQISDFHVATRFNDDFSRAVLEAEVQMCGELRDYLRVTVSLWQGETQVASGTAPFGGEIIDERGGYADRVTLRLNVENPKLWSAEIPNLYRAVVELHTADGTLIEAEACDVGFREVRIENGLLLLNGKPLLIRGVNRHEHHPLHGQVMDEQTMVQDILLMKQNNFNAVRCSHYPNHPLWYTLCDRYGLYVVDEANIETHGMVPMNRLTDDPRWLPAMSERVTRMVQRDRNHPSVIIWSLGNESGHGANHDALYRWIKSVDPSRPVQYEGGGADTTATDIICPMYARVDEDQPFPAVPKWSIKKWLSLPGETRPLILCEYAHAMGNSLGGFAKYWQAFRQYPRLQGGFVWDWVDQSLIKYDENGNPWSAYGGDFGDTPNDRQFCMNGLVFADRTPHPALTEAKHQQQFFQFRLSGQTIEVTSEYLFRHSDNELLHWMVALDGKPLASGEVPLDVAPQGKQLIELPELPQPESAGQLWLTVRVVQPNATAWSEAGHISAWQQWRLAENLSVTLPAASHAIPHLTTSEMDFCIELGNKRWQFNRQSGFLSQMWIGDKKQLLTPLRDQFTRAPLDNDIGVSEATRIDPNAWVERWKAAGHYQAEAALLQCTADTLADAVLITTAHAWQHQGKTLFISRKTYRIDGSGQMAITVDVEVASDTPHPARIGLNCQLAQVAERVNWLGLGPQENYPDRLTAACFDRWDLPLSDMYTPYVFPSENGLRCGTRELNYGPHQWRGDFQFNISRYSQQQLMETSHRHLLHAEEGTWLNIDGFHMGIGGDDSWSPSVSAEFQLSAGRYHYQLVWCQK

[5] = biological target: T3, Carboxy-terminal domain RNA polymerase II polypeptide A small phosphatase 1 (Homo sapiens, UniProt Q9GZU7); experiment: CTDSP1 inhibitors, concentration-response, biochemical, absorbance readout, ultra-high-throughput screen actives (AID 540297); type: functional
T3 sequence (Q9GZU7 whole entry): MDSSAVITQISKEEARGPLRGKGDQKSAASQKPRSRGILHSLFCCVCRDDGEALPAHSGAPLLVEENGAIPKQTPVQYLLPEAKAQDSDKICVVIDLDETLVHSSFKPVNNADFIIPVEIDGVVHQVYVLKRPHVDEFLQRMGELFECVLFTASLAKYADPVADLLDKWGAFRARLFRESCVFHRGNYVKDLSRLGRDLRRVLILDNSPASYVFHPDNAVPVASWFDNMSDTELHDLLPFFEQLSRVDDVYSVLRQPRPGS

[6] = viability loss in HeLa cells – cytotoxicity control for MgcRacGAP inhibitor project, dose response (AID 624300); type: functional
[7] = biological target: T4, Small ubiquitin-related modifier 1 (Homo sapiens, UniProt P63165); experiment: SUMO1 protein interaction blockers, potency – biochemical, fluorescence polarization, uHTS hits, dose response (AID 624382); type: functional; details: read-out: IC50_Mean
T4 sequence (P63165 whole entry): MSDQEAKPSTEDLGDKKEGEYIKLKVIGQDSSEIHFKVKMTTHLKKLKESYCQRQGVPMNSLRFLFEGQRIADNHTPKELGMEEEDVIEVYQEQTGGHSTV

[8] = biological target: T4, Small ubiquitin-related modifier 1; experiment: SUMO1 protein-protein binding blockers, potency – biochemical, FRET, dose response (AID 624383); type: functional; details: read-out: IC50_Mean
[9] = biological target: DNA (cytosine-5)-methyltransferase 1 (Homo sapiens, UniProt P26358); experiment: inhibition of DNA methylation by DNMT1 – biochemical, fluorescent molecular beacon, confirmation (AID 602386); type: functional
Chain of DNA (cytosine-5)-methyltransferase 1 (P26358 whole entry): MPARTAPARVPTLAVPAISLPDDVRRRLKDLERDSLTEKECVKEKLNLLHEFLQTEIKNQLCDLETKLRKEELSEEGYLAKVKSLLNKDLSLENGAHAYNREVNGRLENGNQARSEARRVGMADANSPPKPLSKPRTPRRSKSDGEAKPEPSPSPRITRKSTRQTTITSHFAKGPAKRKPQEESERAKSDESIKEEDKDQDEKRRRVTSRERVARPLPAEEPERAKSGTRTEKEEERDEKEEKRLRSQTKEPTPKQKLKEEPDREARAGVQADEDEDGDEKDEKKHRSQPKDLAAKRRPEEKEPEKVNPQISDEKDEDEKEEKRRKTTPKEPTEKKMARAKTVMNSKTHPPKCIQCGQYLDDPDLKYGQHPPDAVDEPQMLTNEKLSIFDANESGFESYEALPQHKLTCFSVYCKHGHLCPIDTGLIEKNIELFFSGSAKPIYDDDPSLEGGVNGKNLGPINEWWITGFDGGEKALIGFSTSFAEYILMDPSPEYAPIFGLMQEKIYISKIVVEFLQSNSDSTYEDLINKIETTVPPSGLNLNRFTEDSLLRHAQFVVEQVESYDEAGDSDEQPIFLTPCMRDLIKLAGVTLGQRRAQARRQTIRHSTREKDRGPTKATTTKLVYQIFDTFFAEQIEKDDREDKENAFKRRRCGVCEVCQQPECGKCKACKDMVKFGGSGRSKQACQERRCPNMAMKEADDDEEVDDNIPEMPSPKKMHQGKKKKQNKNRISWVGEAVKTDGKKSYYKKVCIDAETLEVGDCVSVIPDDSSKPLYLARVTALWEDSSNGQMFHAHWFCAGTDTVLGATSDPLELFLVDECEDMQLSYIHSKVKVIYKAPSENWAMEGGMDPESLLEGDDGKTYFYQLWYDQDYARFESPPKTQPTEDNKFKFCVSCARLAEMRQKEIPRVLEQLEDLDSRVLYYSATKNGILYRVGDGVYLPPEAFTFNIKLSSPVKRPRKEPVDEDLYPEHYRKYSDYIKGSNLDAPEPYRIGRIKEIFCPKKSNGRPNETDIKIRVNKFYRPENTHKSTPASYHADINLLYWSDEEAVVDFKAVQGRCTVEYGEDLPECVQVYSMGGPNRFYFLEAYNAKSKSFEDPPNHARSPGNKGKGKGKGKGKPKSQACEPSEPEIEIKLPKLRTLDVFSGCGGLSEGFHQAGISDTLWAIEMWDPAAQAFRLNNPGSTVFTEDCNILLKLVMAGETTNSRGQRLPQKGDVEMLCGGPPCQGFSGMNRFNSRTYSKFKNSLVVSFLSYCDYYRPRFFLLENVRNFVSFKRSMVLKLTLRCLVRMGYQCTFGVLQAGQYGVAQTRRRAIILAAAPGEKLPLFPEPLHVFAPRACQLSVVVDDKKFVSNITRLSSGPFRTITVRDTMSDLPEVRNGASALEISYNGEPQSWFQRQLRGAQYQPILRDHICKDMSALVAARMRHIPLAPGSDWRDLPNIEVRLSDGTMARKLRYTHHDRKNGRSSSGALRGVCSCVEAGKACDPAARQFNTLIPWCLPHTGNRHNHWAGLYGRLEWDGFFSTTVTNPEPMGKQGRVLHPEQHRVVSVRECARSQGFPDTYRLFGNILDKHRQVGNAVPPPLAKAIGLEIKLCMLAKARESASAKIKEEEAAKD

[10] = biological target: T2, Small ubiquitin-related modifier 2; experiment: SUMO2 binding disruption by SUMO1 hits – biochemical, FRET, human SUMO2, uHTS hits, selectivity assay for SUMO1 interaction inhibitor project, dose response (AID 624384); type: functional; details: read-out: IC50_Mean
[11] = tested on: Vero; experiment: viability loss in Vero cells – cell-based, plate reader, cherry-pick samples, cytotoxicity control, dose response (AID 687020); type: functional; details: Chlorocebus sabaeus
[12] = Fluorescence-based cell-based high throughput dose response assay for inhibitors of the interaction of nucleotide-binding oligomerization domain containing 2 (NOD2) and the receptor-interacting serine-threonine kinase 2 (RIPK2).; type: functional, Homo sapiens
[13] = biological target: Protein Wnt-3a (Mus musculus, UniProt P27467); experiment: antagonism of Wnt3a pathway luciferase reporter – Wnt-LIGHT cells, luminescence, selectivity assay for Gli-SUFU antagonist project, dose response (AID 651570); type: functional; details: read-out: IC50_Mean;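 further: Wnt-LIGHT reporter cells stimulated with conditioned medium from Wnt3a-producing cells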
Chain of Protein Wnt-3a (P27467 whole entry): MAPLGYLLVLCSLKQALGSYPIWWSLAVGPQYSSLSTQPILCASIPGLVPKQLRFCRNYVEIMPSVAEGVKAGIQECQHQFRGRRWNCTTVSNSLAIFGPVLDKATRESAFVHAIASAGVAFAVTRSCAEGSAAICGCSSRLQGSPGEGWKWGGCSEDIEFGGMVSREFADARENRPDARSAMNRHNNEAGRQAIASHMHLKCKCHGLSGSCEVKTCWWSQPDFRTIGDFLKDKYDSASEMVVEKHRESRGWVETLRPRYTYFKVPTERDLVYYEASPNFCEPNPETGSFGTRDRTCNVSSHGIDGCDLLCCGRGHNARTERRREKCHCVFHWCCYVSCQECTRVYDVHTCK

[14] = cells; type: functional, cell-based
[15] = cells; type: functional, cell-based; remark: listed apart in the source
[16] = biological target: Disintegrin and metalloproteinase domain-containing protein 17 (Homo sapiens, UniProt P78536); experiment: exosite inhibitors of ADAM17, dose response, biochemical (AID 743260)
Chain of Disintegrin and metalloproteinase domain-containing protein 17 (P78536 whole entry, the tested form may be a part): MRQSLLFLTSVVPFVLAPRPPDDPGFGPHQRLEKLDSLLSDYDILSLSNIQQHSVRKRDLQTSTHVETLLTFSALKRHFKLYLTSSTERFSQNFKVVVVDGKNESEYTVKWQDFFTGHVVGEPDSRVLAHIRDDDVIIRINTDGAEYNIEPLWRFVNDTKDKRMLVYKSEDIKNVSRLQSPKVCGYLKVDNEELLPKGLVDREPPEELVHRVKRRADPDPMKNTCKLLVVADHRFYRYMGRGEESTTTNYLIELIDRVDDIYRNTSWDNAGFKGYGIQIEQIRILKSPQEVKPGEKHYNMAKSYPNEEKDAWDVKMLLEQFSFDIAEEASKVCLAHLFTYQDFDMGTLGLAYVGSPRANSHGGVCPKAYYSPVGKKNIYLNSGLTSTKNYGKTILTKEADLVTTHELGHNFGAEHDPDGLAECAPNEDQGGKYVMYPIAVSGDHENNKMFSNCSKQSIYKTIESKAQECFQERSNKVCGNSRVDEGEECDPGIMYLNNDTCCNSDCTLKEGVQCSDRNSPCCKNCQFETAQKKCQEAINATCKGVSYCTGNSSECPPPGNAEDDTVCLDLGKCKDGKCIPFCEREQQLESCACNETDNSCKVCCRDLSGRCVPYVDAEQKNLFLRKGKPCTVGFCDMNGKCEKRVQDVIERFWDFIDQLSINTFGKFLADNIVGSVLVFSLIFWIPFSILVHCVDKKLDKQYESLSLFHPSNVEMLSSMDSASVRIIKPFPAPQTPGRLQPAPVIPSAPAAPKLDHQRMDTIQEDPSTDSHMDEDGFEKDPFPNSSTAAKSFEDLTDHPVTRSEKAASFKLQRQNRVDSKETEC

[17] = inhibition of ADAM10 peptide cleavage – biochemical, FRET peptide substrate, recombinant human ADAM10, selectivity assay for ADAM17 exosite inhibitor project, dose response (AID 743259);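 further: ADAM10 enzyme cleaving a FRET peptide substrate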
[18] = biological target: T5, Probable nicotinate-nucleotide adenylyltransferase (Staphylococcus aureus (strain N315), UniProt P65502); type: functional, Staphylococcus aureus subsp. aureus N315;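 on IC50 Mean: confirmatory dose-response retesting of NadD inhibitor hits first found in an ultra-high-throughput screen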
T5 sequence (P65502 whole entry): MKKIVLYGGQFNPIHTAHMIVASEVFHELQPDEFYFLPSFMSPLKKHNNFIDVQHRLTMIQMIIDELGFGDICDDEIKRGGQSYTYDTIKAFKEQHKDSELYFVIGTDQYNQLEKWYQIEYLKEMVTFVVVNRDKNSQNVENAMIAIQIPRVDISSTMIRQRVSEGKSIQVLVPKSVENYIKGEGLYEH

[19] = biological target: T5, Probable nicotinate-nucleotide adenylyltransferase; type: functional, Staphylococcus aureus subsp. aureus N315; details: read-out: IC50_Mean
[20] = viability loss in HEK293 cells – cell-based, plate reader, cherry-picked samples, cytotoxicity control, dose response (AID 743446); type: functional
[21] = toxicity toward HepG2 liver cells – cell-based, plate reader, cherry-pick, antagonist series, cytotoxicity control, dose response (AID 743416); type: functional
[22] = A549 cell cytotoxicity, dose response, cytotoxicity control, plate reader, cherry-pick, antagonist series (AID 743412); type: functional, cell-based
[23] = blockade of melanocortin 4 receptor signaling – cell-based, plate reader, cherry pick, counter-screen for LGR2 antagonist project, dose response (AID 743444); type: functional;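 further: transfected HEK 293 cells stimulated with alpha-MSH peptide; potency of inhibitors of the alpha-MSH evoked signal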
[24] = intracellular Trypanosoma cruzi inhibitors in host cells – cell-based, plate reader, cherry-pick samples, set 3, dose response (AID 651818); type: functional;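 further: compounds incubated with infected cells for about four days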
[25] = blockers of bursicon-stimulated LGR2 cAMP reporter – cell-based, HEK293, CRE-luciferase reporter, cherry pick, set 2, dose response (AID 743343); type: functional;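 further: transfected cells were stimulated with diluted bursicon conditioned medium after compound addition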
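Wherever EC50 is given: agonist potency from rise in intracellular calcium fluorescence.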

Chain of Protein disulfide-isomerase (P07237 whole entry): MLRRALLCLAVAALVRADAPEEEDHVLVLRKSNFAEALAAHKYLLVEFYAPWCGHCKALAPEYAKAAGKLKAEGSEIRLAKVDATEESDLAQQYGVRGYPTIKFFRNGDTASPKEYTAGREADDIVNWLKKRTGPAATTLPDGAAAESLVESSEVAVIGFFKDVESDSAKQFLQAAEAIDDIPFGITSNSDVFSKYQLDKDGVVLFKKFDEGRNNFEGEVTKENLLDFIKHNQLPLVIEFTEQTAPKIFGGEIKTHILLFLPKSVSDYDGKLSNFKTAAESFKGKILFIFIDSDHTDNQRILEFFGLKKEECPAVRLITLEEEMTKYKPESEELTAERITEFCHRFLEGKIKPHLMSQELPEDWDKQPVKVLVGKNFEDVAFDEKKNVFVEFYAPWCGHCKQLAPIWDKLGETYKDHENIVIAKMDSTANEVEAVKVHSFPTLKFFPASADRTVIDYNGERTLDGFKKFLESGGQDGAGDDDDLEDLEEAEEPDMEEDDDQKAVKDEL

With O=C(O)C1C(c2ccccc2)C(C(=O)Oc2ccc(O)cc2)C1c1ccccc1 (stereo not given) the AC50 [1] was 14.6 µM (active).
In the case of C=CCOc1ccc(C=NNc2ccc(S(=O)(=O)Nc3ccccc3C(=O)O)cc2[N+](=O)[O-])cc1OC, the IC50 [2] is reported as 65.6 µM (active), the IC50 [3] is reported as 17.1 µM (active) and the IC50 [4] is reported as > 66.6 µM (inactive). For the same compound, the IC50 [5] was 2 µM (active), the CC50 [6] was 100 µM (active) and the IC50 [7] was 14 µM (active). The IC50 [8] was 51.2 µM (inactive), the IC50 [9] was 5.32 µM (active) and the IC50 [10] was > 66 µM (inactive).
In the case of CCn1c(=O)n(CC)c2cc(N3CCCC3)c(NC(=O)c3ccc(C)cc3)cc21, the AC50 [11] is reported as 32.2 µM (active).
In the case of CC1=CC2OC3CC4OC(=O)C=CC=CC(=O)OCCC(C)C(O)C(=O)OCC2(CC1O)C4(C)C31CO1 (stereo not given), the IC50 [12] is reported as 49.7 µM (inactive).
With O=C(C[C@H]1C/C=C\C[C@@H](NC(=O)OCC2c3ccccc3-c3ccccc32)C(=O)O[C@@H](c2ccccc2)CNC1=O)N[C@H](CO)Cc1ccccc1 the IC50 [13] was 20.8 µM (inactive).
In the case of CC(C)Cn1c(O)cc(=O)nc1SCC(=O)N1CCc2ccccc2C1, the IC50 [14] is reported as > 29.9 µM (inactive) and the EC50 [15] is reported as > 29.9 µM (inactive).
With CCC(c1nnnn1Cc1ccccc1)N1CCC2(CC1)C(=O)NCN2c1ccccc1 (stereo not given) the IC50 [16] was > 69.4 µM (inactive) and the IC50 [17] was > 69.4 µM (inactive).
In the case of COc1ccc(Br)cc1/C=N/Nc1ccc(S(=O)(=O)Nc2ccccc2C(=O)O)cc1[N+](=O)[O-], the IC50 [3] is reported as 2.52 µM (active), the IC50 [18] is reported as 3.24 µM (active) and the IC50 [19] is reported as 19.9 µM (active). For the same compound, the IC50 [7] was 4.47 µM (active), the IC50 [8] was 50.6 µM (inactive) and the IC50 [9] was 3.39 µM (active). The IC50 [10] was 45.4 µM (inactive).
In the case of COc1ccc(CN(C)C[C@@H]2Oc3c(NC(=O)Nc4ccc(C(F)(F)F)cc4)cccc3C(=O)N([C@@H](C)CO)C[C@H]2C)cc1, the AC50 [20] is reported as 3.5 µM (active), the AC50 [21] is reported as 7.95 µM (active) and the AC50 [22] is reported as 13.6 µM (active). For the same compound, the AC50 [23] was 11 µM (active), the AC50 [24] was 2.27 µM (active) and the AC50 [25] was 16.6 µM (active).
